Source: article PMC12027554, “Inhibition of ABCG2 by SCO-101 Enhances Chemotherapy Efficacy in Cancer” (International Journal of Molecular Sciences, 2025)

Test system: HT29SN-38 cells
Test: 3H-SN-38 uptake in cell monolayers
Type: cell-based, human
Details: HT29SN-38 monolayers
Experimental: Cells were seeded at a density of 1.8 × 10^4 cells/well in 96-well plates and sub-cultured for 48 h. Drugs were dissolved in HBSS transport buffer (HBSS, 0.05% BSA, 10 mM HEPES, pH 7.4) at different concentrations. All treatments were investigated in technical triplicates. On the day of the experiments, the culture medium was exchanged with 100 μL transport buffer and cells incubated for 15 min at 37 °C. Next, the blank transport buffer was exchanged with 50 μL transport buffer containing the different compounds (2X of final concentrations) and incubated for an additional 15 min at 37 °C. The uptake experiment was started by adding 50 μL of 2 μCi/mL ^3H-SN38 and stopped after 15 min of incubation at 37 °C by removing the transport buffer from all wells. Cell monolayers were washed twice by adding/removing ice-cold transport buffer and lysed for 15 min at RT in 100 μL 0.1% TritonX-100. Cell lysates were transferred to scintillation vials containing 2 mL of scintillation fluid (Ultima Gold, PerkinElmer). Each well was washed with 100 μL purified water (milliQ), which was also transferred to respective scintillation vials. The radioactivity in each scintillation vial was measured by means of scintillation counting (Tri-Carb 2910 TR, PerkinElmer, Waltham, MA, USA).

O=C(Nc1cc(C(F)(F)F)cc(C(F)(F)F)c1)Nc1ccc(Br)cc1-c1nnn[nH]1 [SCO-101, N-[4-Bromo-2-(1H-1,2,3,4-tetrazol-5-yl)phenyl]-N′-[3,5-bis(trifluoromethyl)phenyl]urea]
cellular accumulation of 3H-SN-38 (SCO-101 25 µM, Ko-143 0.5 µM, ZSQ 0.5 µM, vs control (HBSS)): greater than those of Ko-143-treated cells
EC50 (Homo sapiens, read-out: EC50, 3H-SN-38 uptake (regarded as IC50 of ABCG2 inhibition)): 6.4 µM
